Test results reported in patent US9018388B2, “Pesticidal compositions and processes related thereto” (Dow AgroSciences LLC, priority 2012, dated 2015).
Like-named read-outs stand apart in the source and are kept apart here.

Experiments:
[1] = tested on: Beet Armyworm (BAW) (Spodoptera exigua); assay: Bioassay on beet armyworm (BAW), 128-well diet tray assay; assay type: in vivo; settings: Spodoptera exigua, read-out: % Mortality BAW 50 μg/cm^2
Description: (§1) Bioassays on Beet Armyworm (“BAW”) and Corn Earworm (“CEW”)
(§2) Certain molecules disclosed in this document were tested against BAW and CEW using procedures described in the following examples. In the reporting of the results, the “BAW & CEW Rating Table” was used (See Table Section).
Bioassays on BAW (Spodoptera exigua)
Bioassays on BAW were conducted using a 128-well diet tray assay. One to five second instar BAW larvae were placed in each well (3 mL) of the diet tray that had been previously filled with 1 mL of artificial diet to which 50 μg/cm^2 of the test compound (dissolved in 50 μL of 90:10 acetone-water mixture) had been applied (to each of eight wells) and then allowed to dry. Trays were covered with a clear self-adhesive cover and held at 25° C., 14:10 light-dark for five to seven days. Percent mortality was recorded for the larvae in each well; activity in the eight wells was then averaged. The results are indicated in the table entitled “Table 5: Biological Results” (See Table Section).

[2] = tested on: Corn Earworm (CEW) (Helicoverpa zea); assay: Bioassay on corn earworm (CEW), 128-well diet tray assay; assay type: in vivo; settings: Helicoverpa zea, read-out: % Mortality CEW 50 μg/cm^2
Description: as §1, §2
Bioassays on CEW (Helicoverpa zea)
Bioassays on CEW were conducted using a 128-well diet tray assay. One to five second instar CEW larvae were placed in each well (3 mL) of the diet tray that had been previously filled with 1 mL of artificial diet to which 50 μg/cm^2 of the test compound (dissolved in 50 μL of 90:10 acetone-water mixture) had been applied (to each of eight wells) and then allowed to dry. Trays were covered with a clear self-adhesive cover and held at 25° C., 14:10 light-dark for five to seven days. Percent mortality was recorded for the larvae in each well; activity in the eight wells was then averaged. The results are indicated in the table entitled “Table 5: Biological Results” (See Table Section).

Row | Compound | pest or weed control at 50 µg/cm2, 50 µg/cm2 ([1]; Beet armyworm, 50 μg/cm^2) | pest or weed control at 50 µg/cm2, 50 µg/cm2 ([2]; Corn earworm, 50 μg/cm^2) | pest or weed control at 50 µg/cm2, 50 µg/cm2 [1] | pest or weed control at 50 µg/cm2, 50 µg/cm2 [2]
1 | CC(C)c1ccccc1N1CCS/C1=N\N=C\c1ccc(-c2ncn(-c3ccc(C(F)(F)F)cc3)n2)cc1 [Compound 134C] | 50 to 100% | 50 to 100% |  | 
2 | CCC(C)c1ccccc1N1C(=O)CS/C1=N\N=C\c1ccc(-c2ncn(-c3ccc(OC(F)(F)F)cc3)n2)cc1 (stereo not shown) [Compound 108C] | 50 to 100% | 50 to 100% |  | 
3 | CCCS/C(=N\c1c(Cl)cccc1Cl)N/N=C/c1ccc(-c2ncn(-c3ccc(OC(F)(F)F)cc3)n2)cc1 [Compound 3C] | 50 to 100% | 50 to 100% |  | 
4 | O=C1CCS/C(=N\N=C\c2ccc(-c3ncn(-c4ccc(OC(F)(F)F)cc4)n3)cc2)N1c1c(F)cccc1F [Compound 226C] | 50 to 100% | 50 to 100% |  | 
5 | CC(C)(C)c1ccccc1N1C(=O)CCS/C1=N\N=C\c1ccc(-c2ncn(-c3ccc(OC(F)(F)F)cc3)n2)cc1 [Compound 232C] | 50 to 100% | 50 to 100% |  | 
6 | CC(C)c1ccc(F)cc1N1CS/C1=N\N=C\c1ccc(-c2ncn(-c3ccc(C(F)(C(F)(F)F)C(F)(F)C(F)(F)F)cc3)n2)cc1 (stereo not shown) [Compound 258C] | 0 to 50% | 50 to 100% |  | 
7 | CC1CCS/C(=N\N=C\c2ccc(-c3ncn(-c4ccc(OC(F)(F)F)cc4)n3)cc2)N1c1ccccc1OC(F)(F)F (stereo not shown) [Compound 216C] | 50 to 100% | 50 to 100% |  | 
8 | FC(F)(F)Oc1ccc(-n2cnc(-c3ccc(/C=N/N=C4\SCCCN4c4c(Cl)cccc4Cl)cc3)n2)cc1 [Compound 187C] | 50 to 100% | 50 to 100% |  | 
9 | COc1cccc(N2CCCS/C2=N\N=C\c2ccc(-c3ncn(-c4ccc(OC(F)(F)F)cc4)n3)cc2)c1 [Compound 206C] | 50 to 100% | 50 to 100% |  | 
10 | CCOc1ccccc1N1C(=O)CS/C1=N\N=C\c1ccc(-c2ncn(-c3ccc(OC(F)(F)F)cc3)n2)cc1 [Compound 116C] | 50 to 100% | 50 to 100% |  | 
11 | Cc1cccc(C)c1/N=C(/N/N=C/c1ccc(-c2ncn(-c3ccc(OC(F)(F)F)cc3)n2)cc1)SCC#C[Si](C)(C)C [Compound 9C] |  |  | 50 to 100% | 50 to 100%
12 | Cc1cccc(C)c1N1C(=O)CS/C1=N\N=C\c1ccc(-c2ncn(-c3ccc(OC(F)(F)C(F)(F)F)cc3)n2)cc1 [Compound 100C] | 50 to 100% | 50 to 100% |  | 
13 | Cc1cc(C)c(N2/C(=N/N=C/c3ccc(-c4ncn(-c5ccc(OC(F)(F)F)cc5)n4)cc3)SCCC2C)c(C)c1 (stereo not shown) [Compound 218C] | 50 to 100% | 50 to 100% |  | 
14 | COCOCC(C)C(=O)OCS/C(=N\c1c(C)cccc1C)N/N=C/c1ccc(-c2ncn(-c3ccc(OC(F)(F)F)cc3)n2)cc1 (stereo not shown) [Compound 41C] | 50 to 100% | 50 to 100% |  | 
15 | Cc1cccc(C)c1/N=C(/N/N=C/c1ccc(-c2ncn(-c3ccc(OC(F)(F)F)cc3)n2)cc1)SCc1ccc(C(F)(F)F)o1 [Compound 16C] | 50 to 100% | 50 to 100% |  | 
16 | CC(C)c1ccccc1N1CCCCS/C1=N\N=C\c1ccc(-c2ncn(-c3ccc(OC(F)(F)F)cc3)n2)cc1 [Compound 212C] | 50 to 100% | 50 to 100% |  | 
17 | CC1CS/C(=N\N=C\c2ccc(-c3ncn(-c4ccc(OC(F)(F)F)cc4)n3)cc2)N(c2ccccc2OC(F)(F)F)C1 (stereo not shown) [Compound 214C] | 50 to 100% | 50 to 100% |  | 
18 | Cc1cccc(C)c1N1C(=O)CS/C1=N\N=C\c1ccc(-c2ncn(-c3ccc(OC(F)(F)F)cc3)n2)cc1 [Compound 71C] | 50 to 100% | 50 to 100% |  | 
19 | COC(=O)C1CC(c2ccc(/C=N/N=C3\SCC(=O)N3c3c(C)cccc3C)cc2)=NN1c1ccc(OC(F)(F)F)cc1 (stereo not shown) [Compound 110C] | 50 to 100% | 50 to 100% |  | 

Row | Compound | pest or weed control at 50 µg/cm2, 50 µg/cm2 ([1]; Beet armyworm, 50 μg/cm^2) | pest or weed control at 50 µg/cm2, 50 µg/cm2 ([2]; Corn earworm, 50 μg/cm^2) | pest or weed control at 50 µg/cm2, 50 µg/cm2 [1] | pest or weed control at 50 µg/cm2, 50 µg/cm2 [2]
20 | Cc1cs/c(=N\N=C\c2ccc(-c3ncn(-c4ccc(OC(F)(F)F)cc4)n3)cc2)n1-c1ccccc1OC(F)(F)F [Compound 170C] | 50 to 100% | 50 to 100% |  | 
21 | O=C1CS/C(=N\N=C\c2ccc(-c3ncn(-c4ccc(OC(F)(F)F)cc4)n3)cc2)N1c1ccccc1OC(F)F [Compound 126C] | 50 to 100% | 50 to 100% |  | 
22 | CC(C)c1ccccc1N1C(=O)CS/C1=N\N=C\c1ccc(-c2ncn(-c3ccc(C(F)(F)F)cc3)n2)cc1 [Compound 120C] | 50 to 100% | 50 to 100% |  | 
23 | CC1CS/C(=N\N=C\c2ccc(-c3ncn(-c4ccc(OC(F)(F)F)cc4)n3)cc2)N1c1ccccc1OC(F)F (stereo not shown) [Compound 164C] | 50 to 100% | 50 to 100% |  | 
24 | CC(C)=Cc1ccccc1N1CCCS/C1=N\N=C\c1ccc(-c2ncn(-c3ccc(OC(F)(F)F)cc3)n2)cc1 [Compound 197C] | 50 to 100% | 50 to 100% |  | 
25 | CC(C)c1ccc(F)cc1N1CS/C1=N\N=C\c1ccc(-c2ncn(-c3ccc(C(F)(C(F)(F)F)C(F)(F)F)cc3)n2)cc1 [Compound 257C] | 50 to 100% | 50 to 100% |  | 
26 | CC(C)c1ccc(F)cc1N1CS/C1=N\N=C\c1ccc(-c2ncn(-c3ccc(C(F)(F)F)cc3)n2)cc1 [Compound 255C] | 50 to 100% | 50 to 100% |  | 
27 | CCc1cccnc1N1C(=O)CS/C1=N\N=C\c1ccc(-c2ncn(-c3ccc(OC(F)(F)F)cc3)n2)cc1 [Compound 123C] | 50 to 100% | 50 to 100% |  | 
28 | CCc1cccc(C)c1N1CCS/C1=N\N=C\c1ccc(-c2ncn(-c3ccc(OC(F)(F)F)cc3)n2)cc1 [Compound 136C] | 50 to 100% | 50 to 100% |  | 
29 | CCc1ccccc1N1CCCS/C1=N\N=C\c1ccc(-c2ncn(-c3ccc(OC(F)(F)F)cc3)n2)cc1 [Compound 185C] | 50 to 100% | 50 to 100% |  | 
30 | Fc1cccc(F)c1N1CS/C1=N\N=C\c1ccc(-c2ncn(-c3ccc(OC(F)(F)F)cc3)n2)cc1 [Compound 245C] | 50 to 100% | 50 to 100% |  | 
31 | CC1CCS/C(=N\N=C\c2ccc(-c3ncn(-c4ccc(OC(F)(F)F)cc4)n3)cc2)N1c1ccccc1C(C)(C)C (stereo not shown) [Compound 222C] | 50 to 100% | 50 to 100% |  | 
32 | COc1cc(C)c(N2C(=O)CSC2=NN=Cc2ccc(-c3ncn(-c4ccc(OC(F)(F)F)cc4)n3)cc2)c(C)c1 (stereo in doubt) [Compound 69C, (Z)-3-(4-methoxy-2,6-dimethylphenyl)-2-((E)-(4-(1-(4-(trifluoromethoxy)phenyl)-1H-1,2,4-triazol-3-yl)benzylidene)hydrazono)thiazolidin-4-one] | 50 to 100% | 50 to 100% |  | 
33 | COc1cc(C)c(-n2c(C)cs/c2=N\N=C\c2ccc(-c3ncn(-c4ccc(OC(F)(F)F)cc4)n3)cc2)c(C)c1 [Compound 172C] | 50 to 100% | 50 to 100% |  | 
34 | CC1CS/C(=N\N=C\c2ccc(-c3ncn(-c4ccc(OC(F)(F)F)cc4)n3)cc2)N1c1ccccc1C(C)(C)C (stereo not shown) [Compound 165C] | 50 to 100% | 50 to 100% |  | 
35 | COc1ccc(N2C(=O)CS/C2=N\N=C\c2ccc(-c3ncn(-c4ccc(OC(F)(F)F)cc4)n3)cc2)c(C)c1 [Compound 114C] | 50 to 100% | 50 to 100% |  | 
36 | Cc1cccc(C)c1/N=C(/N/N=C/c1ccc(-c2ncn(-c3ccc(OC(F)(F)F)cc3)n2)cc1)SCC(=O)NC[C@@H]1CCCN(C(=O)OC(C)(C)C)C1 [Compound 56C, (S)-tert-butyl 3-((2-((Z)-(2,6-dimethylphenylimino)-((E)-2-(4-(1-(4-(trifluoromethoxy)phenyl)-1H-1,2,4-triazol-3-yl)benzylidene)hydrazinyl)-methylthio)acetamido)methyl)piperidine-1-carboxylate] | 50 to 100% | 50 to 100% |  | 
37 | Cc1cccnc1N1CCCS/C1=N\N=C\c1ccc(-c2ncn(-c3ccc(OC(F)(F)F)cc3)n2)cc1 [Compound 198C] | 50 to 100% | 50 to 100% |  | 
38 | FC(F)Oc1ccccc1N1CCS/C1=N\N=C\c1ccc(-c2ncn(-c3ccc(OC(F)(F)F)cc3)n2)cc1 [Compound 152C] | 50 to 100% | 50 to 100% |  | 
